Results taken from PMC6154583, “Optimized 4,5-Diarylimidazoles as Potent/Selective Inhibitors of Protein Kinase CK1δ and Their Structural Relation to p38α MAPK” (Molecules : A Journal of Synthetic Chemistry and Natural …, 2017).

Experiments:
Assay type in all cases: biochemical
DAPK1 = DAPK1 (Homo sapiens, UniProt P53355); assay: ProQinase 33PanQinase selectivity profiling; details: 100 nM, relative to control, read-out: Residual activity (%)
DCAMKL2 = DCAMKL2 (Homo sapiens, UniProt Q8N568); assay: ProQinase 33PanQinase selectivity profiling; details: 100 nM, relative to control, read-out: Residual activity (%)
LCK = LCK (Homo sapiens, UniProt P06239); assay: ProQinase 33PanQinase selectivity profiling; details: 100 nM, relative to control, read-out: residual activity
CDK1/CycE1 = CDK1/CycE1 (Homo sapiens, UniProt P06493); assay: ProQinase 33PanQinase selectivity profiling; details: 100 nM, relative to control, read-out: Residual activity (%)
CK1-gamma3 = CK1-gamma3 (Homo sapiens, UniProt Q9Y6M4); assay: ProQinase 33PanQinase selectivity profiling; details: 100 nM, relative to control
Sequence of CK1-gamma3 (Q9Y6M4 whole entry): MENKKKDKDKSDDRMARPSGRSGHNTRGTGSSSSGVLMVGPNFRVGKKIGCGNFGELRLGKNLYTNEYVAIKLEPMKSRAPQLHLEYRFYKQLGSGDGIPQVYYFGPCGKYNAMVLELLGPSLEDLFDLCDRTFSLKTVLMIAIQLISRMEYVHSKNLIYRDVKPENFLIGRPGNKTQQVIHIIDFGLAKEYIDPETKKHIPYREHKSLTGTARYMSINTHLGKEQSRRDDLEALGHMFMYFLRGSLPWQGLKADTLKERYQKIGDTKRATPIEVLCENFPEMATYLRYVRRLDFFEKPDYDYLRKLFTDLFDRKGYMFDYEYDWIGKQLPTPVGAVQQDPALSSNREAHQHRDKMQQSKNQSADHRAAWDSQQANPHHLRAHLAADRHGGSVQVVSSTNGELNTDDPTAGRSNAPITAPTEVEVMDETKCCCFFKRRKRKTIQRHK

BUB1B = biological target: T1, BUB1B (Homo sapiens, UniProt O60566); assay: ProQinase 33PanQinase selectivity profiling; details: 100 nM, relative to control, read-out: Residual activity (%)
T1 construct: purchased ProQinase GmbH

CDC7/ASK = biological target: T2, CDC7/ASK (Homo sapiens, UniProt O00311); assay: ProQinase 33PanQinase selectivity profiling; details: 100 nM, relative to control, read-out: Residual activity (%)
T2 construct: purchased ProQinase GmbH
T2 sequence (O00311 whole entry): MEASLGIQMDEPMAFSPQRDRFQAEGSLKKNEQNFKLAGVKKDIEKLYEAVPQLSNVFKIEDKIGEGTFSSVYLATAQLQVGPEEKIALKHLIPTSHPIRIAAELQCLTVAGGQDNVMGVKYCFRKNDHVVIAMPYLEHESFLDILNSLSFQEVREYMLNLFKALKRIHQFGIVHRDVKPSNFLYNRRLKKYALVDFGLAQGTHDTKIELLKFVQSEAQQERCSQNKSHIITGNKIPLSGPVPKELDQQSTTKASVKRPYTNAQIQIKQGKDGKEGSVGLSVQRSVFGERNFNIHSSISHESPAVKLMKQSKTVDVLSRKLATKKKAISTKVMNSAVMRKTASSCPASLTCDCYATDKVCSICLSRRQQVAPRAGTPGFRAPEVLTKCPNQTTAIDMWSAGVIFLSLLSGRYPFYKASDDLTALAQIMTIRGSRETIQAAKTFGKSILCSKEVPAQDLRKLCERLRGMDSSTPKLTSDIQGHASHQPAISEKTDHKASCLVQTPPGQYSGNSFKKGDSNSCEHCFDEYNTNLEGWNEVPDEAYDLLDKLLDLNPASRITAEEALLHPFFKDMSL
T2 sequence (Q9UBU7 whole entry partner): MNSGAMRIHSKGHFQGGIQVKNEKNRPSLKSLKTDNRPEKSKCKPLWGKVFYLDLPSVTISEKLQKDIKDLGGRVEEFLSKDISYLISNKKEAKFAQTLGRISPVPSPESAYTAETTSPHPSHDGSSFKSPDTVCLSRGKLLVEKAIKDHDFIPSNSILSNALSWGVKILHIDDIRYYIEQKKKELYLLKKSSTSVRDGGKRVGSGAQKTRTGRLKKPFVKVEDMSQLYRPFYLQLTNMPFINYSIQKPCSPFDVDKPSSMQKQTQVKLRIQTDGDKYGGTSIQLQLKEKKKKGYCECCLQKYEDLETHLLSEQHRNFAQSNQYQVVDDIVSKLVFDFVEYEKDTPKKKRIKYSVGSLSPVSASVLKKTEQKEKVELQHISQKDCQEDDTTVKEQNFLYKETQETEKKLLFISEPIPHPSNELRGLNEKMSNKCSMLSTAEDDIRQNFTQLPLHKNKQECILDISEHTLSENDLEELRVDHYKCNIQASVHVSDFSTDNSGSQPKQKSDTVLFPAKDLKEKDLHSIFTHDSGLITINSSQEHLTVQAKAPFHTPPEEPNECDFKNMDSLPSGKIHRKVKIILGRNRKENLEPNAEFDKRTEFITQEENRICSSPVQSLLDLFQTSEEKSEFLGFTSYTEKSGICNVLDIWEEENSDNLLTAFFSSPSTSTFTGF

EIF2AK3 = biological target: T3, EIF2AK3 (Homo sapiens, UniProt Q9NZJ5); assay: ProQinase 33PanQinase selectivity profiling; details: 100 nM, relative to control, read-out: Residual activity (%)
T3 construct: purchased ProQinase GmbH

CK1-gamma1 = CK1-gamma1 (Homo sapiens, UniProt Q9HCP0); assay: ProQinase 33PanQinase selectivity profiling; details: 100 nM, relative to control
Sequence of CK1-gamma1 (Q9HCP0 whole entry): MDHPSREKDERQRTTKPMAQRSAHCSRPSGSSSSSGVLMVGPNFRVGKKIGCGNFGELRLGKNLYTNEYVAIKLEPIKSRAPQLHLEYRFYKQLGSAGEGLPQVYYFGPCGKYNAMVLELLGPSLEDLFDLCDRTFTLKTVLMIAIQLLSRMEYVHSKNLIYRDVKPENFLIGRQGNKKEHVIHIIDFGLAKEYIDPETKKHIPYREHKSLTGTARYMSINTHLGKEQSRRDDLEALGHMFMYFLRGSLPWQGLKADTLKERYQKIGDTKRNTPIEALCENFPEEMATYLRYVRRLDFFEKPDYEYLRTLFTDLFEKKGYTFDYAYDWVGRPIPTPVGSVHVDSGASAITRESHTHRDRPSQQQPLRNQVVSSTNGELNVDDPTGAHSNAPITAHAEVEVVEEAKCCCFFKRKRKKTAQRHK

EPHA2 = EPHA2 (Homo sapiens, UniProt P29317); assay: ProQinase 33PanQinase selectivity profiling; details: 100 nM, relative to control, read-out: Residual activity (%)
AXL = biological target: T4, AXL (Homo sapiens, UniProt P30530); assay: ProQinase 33PanQinase selectivity profiling; details: 100 nM, relative to control, read-out: Residual activity (%)
T4 construct: purchased ProQinase GmbH (Freiburg, Germany)

EPHA1 = EPHA1 (Homo sapiens, UniProt P21709); assay: ProQinase 33PanQinase selectivity profiling; details: 100 nM, relative to control, read-out: Residual activity (%)
CK1-gamma2 = CK1-gamma2 (Homo sapiens, UniProt P78368); assay: ProQinase 33PanQinase selectivity profiling; details: 100 nM, relative to control
Sequence of CK1-gamma2 (P78368 whole entry): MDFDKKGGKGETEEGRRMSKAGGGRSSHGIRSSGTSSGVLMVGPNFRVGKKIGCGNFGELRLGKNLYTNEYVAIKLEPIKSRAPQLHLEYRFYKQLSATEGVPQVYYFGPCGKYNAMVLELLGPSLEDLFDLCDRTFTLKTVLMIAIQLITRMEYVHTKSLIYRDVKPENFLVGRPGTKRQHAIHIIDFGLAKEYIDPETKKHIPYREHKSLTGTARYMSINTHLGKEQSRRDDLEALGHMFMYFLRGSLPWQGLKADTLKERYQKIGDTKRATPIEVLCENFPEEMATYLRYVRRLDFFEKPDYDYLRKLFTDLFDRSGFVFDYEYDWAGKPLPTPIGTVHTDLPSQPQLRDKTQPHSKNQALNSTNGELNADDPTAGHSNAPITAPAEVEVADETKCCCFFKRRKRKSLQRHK

CK1-alpha1 = CK1-alpha1 (Homo sapiens, UniProt P48729); assay: ProQinase 33PanQinase selectivity profiling; details: 100 nM, relative to control, read-out: Residual activity (%)
Sequence of CK1-alpha1 (P48729 whole entry): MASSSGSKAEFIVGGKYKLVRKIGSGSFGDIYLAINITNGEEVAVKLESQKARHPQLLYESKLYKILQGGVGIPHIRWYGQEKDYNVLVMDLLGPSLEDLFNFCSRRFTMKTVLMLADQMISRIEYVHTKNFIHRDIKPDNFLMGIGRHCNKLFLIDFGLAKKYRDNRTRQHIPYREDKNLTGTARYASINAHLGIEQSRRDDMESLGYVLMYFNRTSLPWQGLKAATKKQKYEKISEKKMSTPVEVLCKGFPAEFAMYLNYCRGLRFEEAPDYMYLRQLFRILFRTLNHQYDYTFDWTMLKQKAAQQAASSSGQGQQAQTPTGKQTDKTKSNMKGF

[1] = tested on: panel of 321 protein kinases; assay: Selectivity profiling in a panel of 321 protein kinases (ProQinase); details: 100 nM
AKT2 aa107-481 = biological target: T5, AKT2 aa107-481 (Homo sapiens, UniProt P31751); assay: ProQinase 33PanQinase selectivity profiling; details: 100 nM, relative to control, read-out: Residual activity (%)
T5 construct: AKT2 aa107-481; purchased ProQinase GmbH (Freiburg, Germany)

CDK1/CycB1 = CDK1/CycB1 (Homo sapiens, UniProt P06493); assay: ProQinase 33PanQinase selectivity profiling; details: 100 nM, relative to control, read-out: Residual activity (%)
EPHA5 = EPHA5 (Homo sapiens, UniProt P54756); assay: ProQinase 33PanQinase selectivity profiling; details: 100 nM, relative to control, read-out: Residual activity (%)
ABL1 = ABL1 (Homo sapiens, UniProt P00519); assay: ProQinase 33PanQinase selectivity profiling; details: 100 nM, relative to control, read-out: Residual activity (%)
Aurora-A = Aurora-A (Homo sapiens, UniProt O14965); assay: ProQinase 33PanQinase selectivity profiling; details: 100 nM, relative to control, read-out: Residual activity (%)
Sequence of Aurora-A (O14965 whole entry): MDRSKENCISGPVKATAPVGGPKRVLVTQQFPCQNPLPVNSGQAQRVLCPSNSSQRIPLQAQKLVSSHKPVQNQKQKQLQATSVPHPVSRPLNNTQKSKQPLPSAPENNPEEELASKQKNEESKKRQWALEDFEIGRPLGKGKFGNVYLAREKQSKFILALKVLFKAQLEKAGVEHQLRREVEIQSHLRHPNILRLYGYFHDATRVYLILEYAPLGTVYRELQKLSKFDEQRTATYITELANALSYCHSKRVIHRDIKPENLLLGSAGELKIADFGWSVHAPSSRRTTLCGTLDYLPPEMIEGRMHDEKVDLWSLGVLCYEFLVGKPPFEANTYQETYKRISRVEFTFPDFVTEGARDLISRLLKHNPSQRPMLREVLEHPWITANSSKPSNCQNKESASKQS

B-RAF V600E = B-RAF V600E (Homo sapiens, UniProt P15056, V600E); assay: ProQinase 33PanQinase selectivity profiling; details: 100 nM, relative to control, read-out: Residual activity (%)
Aurora-C = biological target: T6, Aurora-C (Homo sapiens, UniProt Q9UQB9); assay: ProQinase 33PanQinase selectivity profiling; details: 100 nM, relative to control, read-out: Residual activity (%)
T6 construct: purchased ProQinase GmbH (Freiburg, Germany)
T6 sequence (Q9UQB9 whole entry): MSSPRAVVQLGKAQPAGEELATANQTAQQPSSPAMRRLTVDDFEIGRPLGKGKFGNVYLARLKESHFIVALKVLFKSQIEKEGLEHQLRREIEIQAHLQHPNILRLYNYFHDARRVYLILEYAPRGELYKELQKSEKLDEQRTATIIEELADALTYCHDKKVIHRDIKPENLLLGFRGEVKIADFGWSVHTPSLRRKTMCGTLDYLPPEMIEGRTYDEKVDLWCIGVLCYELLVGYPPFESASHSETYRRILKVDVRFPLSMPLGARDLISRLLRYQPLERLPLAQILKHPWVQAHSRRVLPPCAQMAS

CK2-alpha2 = CK2-alpha2 (Homo sapiens, UniProt P19784); assay: ProQinase 33PanQinase selectivity profiling; details: 100 nM, relative to control, read-out: Residual activity (%)
Sequence of CK2-alpha2 (P19784 whole entry): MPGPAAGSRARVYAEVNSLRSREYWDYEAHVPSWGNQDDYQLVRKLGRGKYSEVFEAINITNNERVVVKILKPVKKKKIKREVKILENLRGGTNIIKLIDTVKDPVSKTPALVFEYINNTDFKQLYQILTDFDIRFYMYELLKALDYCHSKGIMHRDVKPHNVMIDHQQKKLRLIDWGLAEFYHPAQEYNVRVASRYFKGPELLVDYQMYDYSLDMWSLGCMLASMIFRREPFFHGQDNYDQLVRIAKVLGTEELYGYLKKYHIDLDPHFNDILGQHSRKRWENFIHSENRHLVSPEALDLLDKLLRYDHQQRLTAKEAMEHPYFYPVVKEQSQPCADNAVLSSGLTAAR

CDK4/CycD3 = CDK4/CycD3 (Homo sapiens, UniProt P11802); assay: ProQinase 33PanQinase selectivity profiling; details: 100 nM, relative to control, read-out: Residual activity (%)
Sequence of CDK4/CycD3 (P11802 whole entry): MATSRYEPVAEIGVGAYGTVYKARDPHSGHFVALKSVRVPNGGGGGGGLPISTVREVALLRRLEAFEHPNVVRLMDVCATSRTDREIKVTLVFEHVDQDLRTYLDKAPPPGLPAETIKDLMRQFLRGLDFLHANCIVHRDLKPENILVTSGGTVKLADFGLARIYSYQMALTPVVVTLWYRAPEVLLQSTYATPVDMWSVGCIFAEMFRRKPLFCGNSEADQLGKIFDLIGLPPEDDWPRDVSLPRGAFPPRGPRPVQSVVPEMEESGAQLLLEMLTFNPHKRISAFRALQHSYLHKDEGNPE
Sequence of CDK4/CycD3 (P30281 whole entry partner): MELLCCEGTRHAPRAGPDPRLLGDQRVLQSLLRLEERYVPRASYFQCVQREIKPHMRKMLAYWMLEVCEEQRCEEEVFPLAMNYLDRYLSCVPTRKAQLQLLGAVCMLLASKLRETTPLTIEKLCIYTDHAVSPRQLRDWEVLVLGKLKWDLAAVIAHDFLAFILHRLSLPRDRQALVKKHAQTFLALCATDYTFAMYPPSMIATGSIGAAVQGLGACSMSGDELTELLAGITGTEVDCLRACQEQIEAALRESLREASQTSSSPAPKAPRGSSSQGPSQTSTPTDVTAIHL

Aurora-B = Aurora-B (Homo sapiens, UniProt Q96GD4); assay: ProQinase 33PanQinase selectivity profiling; details: 100 nM, relative to control, read-out: Residual activity (%)
ACV-RL1 = biological target: T7, ACV-RL1 (Homo sapiens, UniProt P37023); assay: ProQinase 33PanQinase selectivity profiling; details: 100 nM, relative to control, read-out: Residual activity (%)
T7 construct: purchased ProQinase GmbH (Freiburg, Germany)

CDK3/CycE1 = CDK3/CycE1 (Homo sapiens, UniProt Q00526); assay: ProQinase 33PanQinase selectivity profiling; details: 100 nM, relative to control, read-out: Residual activity (%)
BRK = biological target: T8, BRK (Homo sapiens, UniProt Q13882); assay: ProQinase 33PanQinase selectivity profiling; details: 100 nM, relative to control, read-out: Residual activity (%)
T8 construct: purchased ProQinase GmbH

CDK6/CycD3 = CDK6/CycD3 (Homo sapiens, UniProt Q00534); assay: ProQinase 33PanQinase selectivity profiling; details: 100 nM, relative to control, read-out: Residual activity (%)
Sequence of CDK6/CycD3 (Q00534 whole entry): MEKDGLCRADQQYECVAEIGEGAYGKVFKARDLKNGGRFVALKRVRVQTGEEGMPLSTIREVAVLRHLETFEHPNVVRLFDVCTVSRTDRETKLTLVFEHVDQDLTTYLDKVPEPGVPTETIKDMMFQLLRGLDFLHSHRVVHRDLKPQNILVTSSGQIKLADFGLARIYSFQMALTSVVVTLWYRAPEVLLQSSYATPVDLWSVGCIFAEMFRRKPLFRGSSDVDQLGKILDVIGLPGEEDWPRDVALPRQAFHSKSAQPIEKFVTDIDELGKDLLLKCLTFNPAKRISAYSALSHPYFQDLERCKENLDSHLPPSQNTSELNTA
Sequence of CDK6/CycD3 (P30281 whole entry partner): as the sequence (P30281 whole entry partner) above

p38α MAPK = p38α MAPK (Homo sapiens, UniProt Q16539); assay: ProQinase 33PanQinase selectivity profiling; details: 100 nM, relative to control, read-out: residual activity
DYRK1A = DYRK1A (Homo sapiens, UniProt Q13627); assay: ProQinase 33PanQinase selectivity profiling; details: 100 nM, relative to control, read-out: Residual activity (%)
BTK = BTK (Homo sapiens, UniProt Q06187); assay: ProQinase 33PanQinase selectivity profiling; details: 100 nM, relative to control, read-out: Residual activity (%)
CLK3 = biological target: T9, CLK3 (Homo sapiens, UniProt P49761); assay: ProQinase 33PanQinase selectivity profiling; details: 100 nM, relative to control, read-out: Residual activity (%)
T9 construct: purchased ProQinase GmbH

CDK3/CycC = CDK3/CycC (Homo sapiens, UniProt Q00526); assay: ProQinase 33PanQinase selectivity profiling; details: 100 nM, relative to control, read-out: Residual activity (%)
ACV-R1 = ACV-R1 (Homo sapiens, UniProt Q04771); assay: ProQinase 33PanQinase selectivity profiling; details: 100 nM, relative to control, read-out: Residual activity (%)
CAMK4 = CAMK4 (Homo sapiens, UniProt Q16566); assay: ProQinase 33PanQinase selectivity profiling; details: 100 nM, relative to control, read-out: Residual activity (%)
DYRK3 = DYRK3 (Homo sapiens, UniProt O43781); assay: ProQinase 33PanQinase selectivity profiling; details: 100 nM, relative to control, read-out: Residual activity (%)
CSF1-R = biological target: T10, CSF1-R (Homo sapiens, UniProt P07333); assay: ProQinase 33PanQinase selectivity profiling; details: 100 nM, relative to control, read-out: Residual activity (%)
T10 construct: purchased ProQinase GmbH

AKT1 aa106-480 = biological target: T11, AKT1 aa106-480 (Homo sapiens, UniProt P31749); assay: ProQinase 33PanQinase selectivity profiling; details: 100 nM, relative to control, read-out: Residual activity (%)
T11 construct: AKT1 aa106-480; purchased ProQinase GmbH (Freiburg, Germany)

ABL2 = ABL2 (Homo sapiens, UniProt P42684); assay: ProQinase 33PanQinase selectivity profiling; details: 100 nM, relative to control, read-out: Residual activity (%)
DAPK3 = DAPK3 (Homo sapiens, UniProt O43293); assay: ProQinase 33PanQinase selectivity profiling; details: 100 nM, relative to control, read-out: Residual activity (%)
[2] = read-out: Residual activity (%)

SMILES: COc1ccc(OC)c(CCC(=O)Nc2cc(-c3nc(SC)[nH]c3-c3ccc(F)cc3)ccn2)c1 [11b, 3-(2,5-Dimethoxyphenyl)-N-(4-(5-(4-fluorophenyl)-2-(methylthio)-1H-imidazol-4-yl)-pyridin-2-yl)-propanamide]
- remaining activity at 0.1 µM (DAPK1): 96%
- remaining activity at 0.1 µM (DCAMKL2): 94%
- remaining activity at 0.1 µM (LCK): 26%
- remaining activity at 0.1 µM (CDK1/CycE1): 97%
- Residual activity (%) (CK1-gamma3): unaffected
- remaining activity at 0.1 µM (CK1-gamma3; [2]): 73%
- remaining activity at 0.1 µM (BUB1B): 102%
- remaining activity at 0.1 µM (CDC7/ASK): 97%
- remaining activity at 0.1 µM (EIF2AK3): 91%
- Residual activity (%) (CK1-gamma1): unaffected
- remaining activity at 0.1 µM (CK1-gamma1; [2]): 100%
- remaining activity at 0.1 µM (EPHA2): 95%
- remaining activity at 0.1 µM (AXL): 104%
- remaining activity at 0.1 µM (EPHA1): 104%
- Residual activity (%) (CK1-gamma2): unaffected
- remaining activity at 0.1 µM (CK1-gamma2; [2]): 91%
- remaining activity at 0.1 µM (CK1-alpha1): 26%
- selectivity score S(50) ([1]; 321 protein kinases, calculated in accordance to Karaman et al.): 0.027
- additional kinases with residual activities less than 50% apart from CK1δ and CK1ε ([1]; panel of 321 protein kinases): six
- remaining activity at 0.1 µM (AKT2 aa107-481): 97%
- remaining activity at 0.1 µM (CDK1/CycB1): 95%
- remaining activity at 0.1 µM (EPHA5): 97%
- remaining activity at 0.1 µM (ABL1): 100%
- remaining activity at 0.1 µM (Aurora-A): 93%
- remaining activity at 0.1 µM (B-RAF V600E): 102%
- remaining activity at 0.1 µM (Aurora-C): 93%
- remaining activity at 0.1 µM (CK2-alpha2): 90%
- remaining activity at 0.1 µM (CDK4/CycD3): 88%
- remaining activity at 0.1 µM (Aurora-B): 92%
- remaining activity at 0.1 µM (ACV-RL1): 99%
- remaining activity at 0.1 µM (CDK3/CycE1): 98%
- remaining activity at 0.1 µM (BRK): 98%
- remaining activity at 0.1 µM (CDK6/CycD3): 97%
- remaining activity at 0.1 µM (p38α MAPK): 22%
- remaining activity at 0.1 µM (DYRK1A): 96%
- remaining activity at 0.1 µM (BTK): 105%
- remaining activity at 0.1 µM (CLK3): 98%
- remaining activity at 0.1 µM (CDK3/CycC): 95%
- remaining activity at 0.1 µM (ACV-R1): 95%
- remaining activity at 0.1 µM (CAMK4): 95%
- remaining activity at 0.1 µM (DYRK3): 97%
- remaining activity at 0.1 µM (CSF1-R): 104%
- remaining activity at 0.1 µM (AKT1 aa106-480): 90%
- remaining activity at 0.1 µM (ABL2): 91%
- remaining activity at 0.1 µM (DAPK3): 85%
